Data: PMC8064491, “Design and Synthesis of Novel Symmetric Fluorene-2,7-Diamine Derivatives as Potent Hepatitis C Virus Inhibitors” (Pharmaceuticals, 2021)
Where two headings read alike, the source gives them in different places.

How the values were obtained:
[1] = test system: HCV subgenomic reporter replicon of genotype 1b (strain Con1); assay: Anti-HCV 1b activity, luciferase reporter replicon assay in Huh5-2 cells; assay type: cell-based, Hepatitis C virus; settings: for EC50: Hepatitis C virus, read-out: HCV Replicon 1b EC50; for HCV Replicon 1b SI50: SI50 = CC50/EC50; for times less potent than compound 26: HCV 1b EC50 ratio
Experimental: (§1) The HCV RNA replication inhibitory effect of the novel compounds and their impact on cell viability was tested in the stable cell line Huh5-2 carrying an HCV subgenomic reporter replicon of genotype 1b (strain Con1). The viral replication level was measured in terms of the activity of the co-expressed firefly luciferase (F-Luc). Several concentrations of the tested compounds were prepared in a cell culture medium and were used to treat the cells for 72 h. The solvent DMSO was added as a control with a final concentration of 0.2% so as not to impact viral replication (data not shown). First, different compound concentrations of up to 100 μM were evaluated for their effect on cell viability; results are reported as the median cytotoxic concentration (CC50). Next, all compounds were screened for their anti-HCV activity at a concentration of 1 µM, and compounds showing ≥50% activity were further tested in several concentrations to calculate the median effective concentration (EC50) values (Table 1 and Table 2). The anti-HCV activity of the analogs 1–32 was estimated by quantifying luciferase activity resulting from viral replication. Cytotoxicity was determined by measuring the intracellular levels of ATP. The selectivity index (SI50) was calculated as the ratio of CC50 to EC50 and was calculated as an indication of the compounds’ safety. We used daclatasvir as a positive control.
The stable replicon cell line Huh5-2 (genotype 1b; Con1) (kindly provided by R. Bartenschlager, Heidelberg University, Germany) has been described previously. The stable cell lines Huh7.5-3a and Huh7.5-4a have been constructed with the subgenomic reporter replicons of HCV 3a (S52) S52-SG(Feo)(AII) and HCV 4a (ED43) ED43-SG(Feo)(VYG) (kindly provided by C.M. Rice, The Rockefeller University, NY). Cells were cultured in high glucose (25 mM) Dulbecco’s modified minimal essential medium (Invitrogen), supplemented with 2 mM L-glutamine, 0.1 mM non-essential amino acids, 100 U/mL penicillin, 100 µg/mL streptomycin, and 10% (v/v) fetal calf serum (referred to as complete DMEM). Complete DMEM was supplemented with G418 at 500 μg/mL for Huh5-2, 750 μg/mL for Huh7.5-3a, and 350 μg/mL for Huh7.5-4a.
(§2) Cells were treated with serial dilutions of the test compounds or the solvent DMSO for 72 h. Antiviral activity and cytotoxicity were determined by measuring virus-derived luciferase activity or intracellular ATP levels, respectively. The median effective concentration (EC50) of the compounds, reducing luciferase signal by 50%, and their median cytotoxic concentration (CC50), causing 50% cell death, were determined by nonlinear regression analysis using the Prism 6.0 software (GraphPad Software Inc.). Daclatasvir was kindly provided by Dr. Marc Windisch (Institut Pasteur Korea).
Firefly luciferase activity was measured using Luciferase Assay System (Promega), according to the manufacturer’s instructions. Measurements were performed with a GloMax 20/20 single tube luminometer (Promega) for 10 s. Values were normalized to total protein amounts as quantified by Bradford assay (Pierce).

[2] = Cytotoxicity by intracellular ATP levels; assay type: cell-based; settings: human, Huh5-2 cells, read-out: HCV Replicon 1b CC50
Experimental: as §1, §2
ATP was measured using the ViaLight HS BioAssay kit (Lonza) according to the manufacturer’s protocol in a GloMax 20/20 single-tube luminometer (Promega) for 1 s. Values were normalized to total protein amounts.

[3] = Huh-5-2, Huh5-2 cells, 72 h, luciferase activity

| SMILES | EC50 ([1]; Huh-5-2, 72 h) [nM] | HCV Replicon 1b SI50 [1] | CC50 at 72 h [2] [nM] | EC50 [1, 3] [nM] | times less potent than compound 26 [1] [times] |
| --- | --- | --- | --- | --- | --- |
| CCOC(=O)N[C@@H](C(=O)N1CCC[C@H]1C(=O)Nc1ccc2c(c1)Cc1cc(NC(=O)[C@@H]3CCCN3C(=O)[C@H](NC(=O)OCC)C(C)C)ccc1-2)C(C)C [Compound 6, Diethyl((2R,2’R)-((2S,2’S)-(((9H-fluorene-2,7-diyl)bis(azanediyl))bis(carbonyl))bis(pyrrolidine-2,1-diyl))bis(3-methyl-1-oxobutane-1,2-diyl))dicarbamate] | 102 | 780 | 79600 |  |  |
| CCCCOC(=O)N[C@H](CC(C)C)C(=O)N1CCC[C@H]1C(=O)Nc1ccc2c(c1)Cc1cc(NC(=O)[C@@H]3CCCN3C(=O)[C@@H](CC(C)C)NC(=O)OCCCC)ccc1-2 [Compound 15, Dibutyl((2R,2’R)-((2S,2’S)-(((9H-fluorene-2,7-diyl)bis(azanediyl))bis(carbonyl))bis(pyrrolidine-2,1-diyl))bis(4-methyl-1-oxopentane-1,2-diyl))dicarbamate] | > 1000 |  | 34200 |  |  |
| CC(C)(C)OC(=O)N1CCCC(C(=O)Nc2ccc3c(c2)Cc2cc(NC(=O)C4CCCN(C(=O)OC(C)(C)C)C4)ccc2-3)C1 (stereo not shown) [IV, Di-tert-butyl3,3’-(((9H-fluorene-2,7diyl)bis(azanediyl))bis(carbonyl))bis(piperidine-1-carboxylate)] |  |  | 45000 | > 1000 |  |
| CCC(C)[C@H](NC(=O)OC)C(=O)N1CCCC(C(=O)Nc2ccc3c(c2)Cc2cc(NC(=O)C4CCCN(C(=O)[C@@H](NC(=O)OC)C(C)CC)C4)ccc2-3)C1 (stereo partly shown) [Compound 31] | 296 | 333 | 98300 |  |  |
| CCCCOC(=O)N[C@@H](C(=O)N1CCC[C@H]1C(=O)Nc1ccc2c(c1)Cc1cc(NC(=O)[C@@H]3CCCN3C(=O)[C@H](NC(=O)OCCCC)c3ccccc3)ccc1-2)c1ccccc1 [Compound 27, Dibutyl((1R,1’R)-((2S,2’S)-(((9H-fluorene-2,7-diyl)bis(azanediyl))bis(carbonyl))bis(pyrrolidine-2,1-diyl))bis(2-oxo-1-phenylethane-2,1-diyl))dicarbamate] | 4.03 | >24,795 | > 100000 |  | 100 |
| CCOC(=O)N[C@H](C(=O)N1CCC[C@H]1C(=O)Nc1ccc2c(c1)Cc1cc(NC(=O)[C@@H]3CCCN3C(=O)[C@@H](NC(=O)OCC)c3ccccc3)ccc1-2)c1ccccc1 [Compound 22, Diethyl((1S,1’S)-((2S,2’S)-(((9H-fluorene-2,7-diyl)bis(azanediyl))bis(carbonyl))bis(pyrrolidine-2,1-diyl))bis(2-oxo-1-phenylethane-2,1-diyl))dicarbamate] | 7.49 | >13,349 | > 100000 |  |  |
| COC(=O)N[C@H](CC(C)C)C(=O)N1CCC[C@H]1C(=O)Nc1ccc2c(c1)Cc1cc(NC(=O)[C@@H]3CCCN3C(=O)[C@@H](CC(C)C)NC(=O)OC)ccc1-2 [Compound 13, Dimethyl((2R,2’R)-((2S,2’S)-(((9H-fluorene-2,7-diyl)bis(azanediyl))bis(carbonyl))bis(pyrrolidine-2,1-diyl))bis(4-methyl-1-oxopentane-1,2-diyl))dicarbamate] | 0.081 | >1,238,850 | > 100000 |  |  |
| COC(=O)N[C@@H](C(=O)N1CCC[C@H]1C(=O)Nc1ccc2c(c1)Cc1cc(NC(=O)[C@@H]3CCCN3C(=O)[C@H](NC(=O)OC)C(C)C)ccc1-2)C(C)C [Compound 5, Dimethyl ((2R,2’R)-((2S,2’S)-(((9H-fluorene-2,7-diyl)bis(azanediyl))bis(carbonyl))bis(pyrrolidine-2,1-diyl))bis(3-methyl-1-oxobutane-1,2-diyl))dicarbamate] | 801 | >125 | > 100000 |  |  |
| CCCCOC(=O)N[C@@H](C(=O)N1CCC[C@H]1C(=O)Nc1ccc2c(c1)Cc1cc(NC(=O)[C@@H]3CCCN3C(=O)[C@H](NC(=O)OCCCC)C(C)C)ccc1-2)C(C)C [Compound 7, Dibutyl((2R,2’R)-((2S,2’S)-(((9H-fluorene-2,7-diyl)bis(azanediyl))bis(carbonyl))bis(pyrrolidine-2,1-diyl))bis(3-methyl-1-oxobutane-1,2-diyl))dicarbamate] | 981 | >102 | > 100000 |  |  |
| CC(C)C[C@@H](NC(=O)OCc1ccccc1)C(=O)N1CCC[C@H]1C(=O)Nc1ccc2c(c1)Cc1cc(NC(=O)[C@@H]3CCCN3C(=O)[C@@H](CC(C)C)NC(=O)OCc3ccccc3)ccc1-2 [Compound 16, Dibenzyl((2R,2’R)-((2S,2’S)-(((9H-fluorene-2,7-diyl)bis(azanediyl))bis(carbonyl))bis(pyrrolidine-2,1-diyl))bis(4-methyl-1-oxopentane-1,2-diyl))dicarbamate] | > 1000 |  | > 100000 |  |  |
| CCOC(=O)N[C@H](CC(C)C)C(=O)N1CCC[C@H]1C(=O)Nc1ccc2c(c1)Cc1cc(NC(=O)[C@@H]3CCCN3C(=O)[C@@H](CC(C)C)NC(=O)OCC)ccc1-2 [Compound 14, Diethyl ((2R,2’R)-((2S,2’S)-(((9H-fluorene-2,7-diyl)bis(azanediyl))bis(carbonyl))bis(pyrrolidine-2,1-diyl))bis(4-methyl-1-oxopentane-1,2-diyl))dicarbamate] | 2.55 | >39,185 | > 100000 |  |  |
| O=C(N[C@@H](C(=O)N1CCC[C@H]1C(=O)Nc1ccc2c(c1)Cc1cc(NC(=O)[C@@H]3CCCN3C(=O)[C@H](NC(=O)OCc3ccccc3)c3ccccc3)ccc1-2)c1ccccc1)OCc1ccccc1 [Compound 28, Dibenzyl((1R,1’R)-((2S,2’S)-(((9H-fluorene-2,7-diyl)bis(azanediyl))bis(carbonyl)) Bis(pyrrolidine-2,1-diyl))bis(2-oxo-1-phenylethane-2,1-diyl))dicarbamate] |  | >1,058 | > 100000 | 94.5 | 2363 |
| CC(C)[C@@H](NC(=O)OCc1ccccc1)C(=O)N1CCC[C@H]1C(=O)Nc1ccc2c(c1)Cc1cc(NC(=O)[C@@H]3CCCN3C(=O)[C@H](NC(=O)OCc3ccccc3)C(C)C)ccc1-2 [Compound 8, Dibenzyl((2R,2’R)-((2S,2’S)-(((9H-fluorene-2,7-diyl)bis(azanediyl))bis(carbonyl))bis(pyrrolidine-2,1-diyl))bis(3-methyl-1-oxobutane-1,2-diyl))dicarbamate] | 45.4 | >2202 | > 100000 |  |  |
| CCOC(=O)N[C@H](C(=O)N1CCC[C@H]1C(=O)Nc1ccc2c(c1)Cc1cc(NC(=O)[C@@H]3CCCN3C(=O)[C@@H](NC(=O)OCC)C(C)C)ccc1-2)C(C)C [Compound 2, Diethyl((2S,2’S)-((2S,2’S)-(((9H-fluorene-2,7-diyl)bis(azanediyl))bis(carbonyl))bis(pyrrolidine-2,1-diyl))bis(3-methyl-1-oxobutane-1,2-diyl))dicarbamate] | > 1000 |  | > 100000 |  |  |
| CC(C)[C@H](NC(=O)OCc1ccccc1)C(=O)N1CCC[C@H]1C(=O)Nc1ccc2c(c1)Cc1cc(NC(=O)[C@@H]3CCCN3C(=O)[C@@H](NC(=O)OCc3ccccc3)C(C)C)ccc1-2 [Compound 4, Dibenzyl ((2S,2’S)-((2S,2’S)-(((9H-fluorene-2,7-diyl)bis(azanediyl))bis(carbonyl))bis(pyrrolidine-2,1-diyl))bis(3-methyl-1-oxobutane-1,2-diyl))dicarbamate] | 967 | >103 | > 100000 |  |  |
